Source: US20100035822A1, “PROLINE-RICH PEPTIDES, PHARMACEUTICAL COMPOSITION, USE OF ONE OR MORE PEPTIDES AND METHOD OF TREATMENT” (priority 2006, published 2010)
“Also recorded” adds a separate entry of the source. Square brackets hold non-standard residues; d marks the D form. Ends that are not written are not given here. Peptide text beside a SMILES is read from it. pGlu = O=C1CC[C@@H](C(=O)O)N1

What was measured:
[1] = Bioavailability / tissue distribution of 125I-labelled peptide in mice; assay type: in vivo, mouse
From the text: Peptide SEQ ID NO 8 was labeled with ^125I according to Greenwood and Hunter (Greenwood F C and Hunter W M. The preparation of ^125I-labelled human growth hormone of high specific radioactivity. J. Biochem., 89:114-123, 1963), with modifications [Biscayart P L, Paladini A C, Vita N, Roguin L P. Preparation of ^125I-labeled human growth hormone of high quality binding properties endowed with long-term stability. J. Immunoassay, 10, 37-56, 1989; Ribela et al., Protein Exp. Purif., 18(2):115-200, 2000). Under constant shaking, 5 μg of the synthetic SEQ ID NO 8 peptide in PBS were mixed with 1 mCi of ^125I, and 0.8 μg of chloramines T. After 5 minutes, 1 μg metabisulfite and 200 μg potassium iodine were added to finalize the labeling reaction. Purification of the labeled product was performed by reverse-phase chromatography in a disposable micro-column (Sep-Pak C18, Waters) as described by Christophe et al. [Christophe et al., The synthetic peptide trp-lys-tyr-met-val-met-NH2 specifically activates neutrophils through FPRL1/lipoxin A4 receptors and is an agonist for the orphan monocyte-expressed chemoattractant receptor FPRL2. J. Biol. Chem. 276: 21585-21593, 2001]. The reaction product was diluted in three volumes of destined water, and applied to the column that had been pre-treated with destined water. Potassium iodine (5 mM, 20 mL) was added, and the column was washed twice with 20 mL distilled water. The labeled peptide was eluted with 2 mL 100% methanol, and 5 μl aliquots were analyzed in the gamma radiation counter from Nuclear Chicago. […]
The animals were anesthetized after 1, 5, 15, 30, 45, 60, 120 and 180 min after injection, and killed by cervical dislocation, and organs (heart, spleen, liver, kidney, intestines, stomach, thyroid, testicles, and brain) were removed, flushed free of blood with 0.9% saline, and weighed. The radioactivity of each organ was determined in a gamma counter. […]
The dose percentage present in each organ was determined, using an administered dose standard. Radioactivity values were registered, given in dose percentage/mg of tissue.

[2] = Determination of Z-pro metabolites in mice urine; assay type: in vivo, mouse; conditions: for Metabolites in the urine: mice, 0.91 mg/Kg intraperitoneally, urine collected after 24 hours, mass spectrometry
Protocol: In vivo hydrolysis of peptides SEQ ID NO 1, SEQ ID NO 4, SEQ ID NO 5, SEQ ID NO 8, and SEQ ID NO 15 was investigated in Swiss male mice weighing approximately 22-25 g, which had free access to food and water, and were kept under a light-dark cycle of 12 hour periods.
Groups of 10 mice were treated intraperitoneally with 0.91 mg/Kg of each proline rich oligopeptide per animal, diluted in 200 μl saline. Treated and control animals (not treated) were kept in metabolic cages, and their urine was collected after 24 hours. The urine was pre-purified in a reverse phase Sep-Pak C18 micro column (Waters), which had been previously equilibrated with solvent A (H2O/0.1% TFA). Samples were eluted with 60% solvent B (90% acetonitrile/10% solvent A), lyophilized, and resuspended in 1 ml deionized water to be centrifuged at 14.000 rpm for 5 minutes. The supernatant (500 μl) was fractionated in an analytic HPLC system. The gradient was 5-65% solvent B for 30 minutes, using a flow rate of 1 ml/min and monitoring at 214 nm. Fractions were lyophilized and ressuspended in acetonitrile/H2O (1:1), containing 0.2% formic acid, and were analyzed by mass spectrometry (Q-TOF-Pro). Urine fractions from control and treated animals were compared to determine the presence of metabolites originated from the peptides being tested.

[3] = tested on: SK-N-AS cells (human neuroblastoma); experiment: Free intracellular Ca2+ concentration in SK-N-AS cells (fluo-3 AM, confocal microscopy); assay type: cell-based
Protocol: In these experiments the variation in free intracellular calcium [Ca^2+]i concentration was measured in SK-N-AS cells (human neuroblastoma, ATCC No. CRL-2137) after addition of 1 μmolar of peptides SEQ ID NO 1 or SEQ ID NO 8, or of 1 μmolar captopril. Cells were kept in DMEM (Dulbecco Modified Medium), supplemented with 10% fetal bovine serum (FBS) and 1% non-essential amino acids, at 5% CO2 atmosphere, at 37° C., and 95% relative humidity. Cells were treated with trypsin, and replicated at adequate cell concentrations.
Measurements of variation in the concentration of free [Ca^2+]i were performed with a confocal microscope LSM 510 (Zeiss, Jena, Germany), as described by Martins et al., (Martins et al., Neuronal differentiation of P19 embryonal carcinoma cells modulates kinin B2 receptor gene expression and function. J. Biol. Chem. 280: 19576-19586, 2005). Approximately 5×10^4 SK-N-AS cells were plated on 60 mm plates 24 hours prior to measurement, and then treated with 4 μM fluo-3 AM (Invitrogen Corporation) in 0.5% DMSO and 0.1% non-ionic surfactant pluronic acid F-127 for 30 minutes at 37° C. Cells were washed with DMEM containing 10% FBS, and transferred to defined medium (5 μg/ml insulin, 30 μg/ml transferrin, 20 μM ethanolamine, 30 nM sodium selenite, 1 μM sodium pyruvate, 1% non-essential amino acids, 1 mM glutamine, 100 μg/ml penicillin, 100 μg/ml streptomycin, 10 mM HEPES pH 7.4 in DMEM). The fluorescent fluo-3 AM was excited at 488 nm, and the fluorescence measured at 526 nm.
Variations in the [Ca^2+]i were measured in non-stimulated cells, and in cells stimulated with peptides SEQ ID NO 1 or SEQ ID NO 8, or with captopril (Sigma Aldrich). Increase of fluorescence was monitored for 2 minutes, and images were acquired in 256×256 pixels every second. At the end of each experiment, 5 μM ionophore (4-Br-A23187) were added, followed by 10 mM EGTA, or 20 μM digitonin to determine maximum and minimum fluorescence, Fmax and Fmin respectively, as described by Grynkiewicz et al., (1985).
Intracellular calcium concentrations [Ca^2+]i, related to fluorescence (F) values obtained after addition of peptides SEQ ID NO 1 or SEQ ID NO 8, were calculated with the equation: [Ca^2+]=Kd(F−Fmin)/(Fmax−F), assuming Kd=450 nM for fluo-3 AM (Hallett et al., 1990).

[4] = target: T1, argininosuccinate synthase (AsS) (Mus musculus, UniProt P16460); experiment: Potentiation of argininosuccinate synthase activity (phosphate generated from ATP); assay type: biochemical; conditions: AsS activated by SEQ ID NO 8
T1 construct: Cytosolic and membrane fractions of the renal extract (100 mg/ml total protein) were applied to separate columns; from tissue; host or cells: Balb-c mouse kidney, cytosolic and membrane fractions
T1 sequence (P16460 1-412): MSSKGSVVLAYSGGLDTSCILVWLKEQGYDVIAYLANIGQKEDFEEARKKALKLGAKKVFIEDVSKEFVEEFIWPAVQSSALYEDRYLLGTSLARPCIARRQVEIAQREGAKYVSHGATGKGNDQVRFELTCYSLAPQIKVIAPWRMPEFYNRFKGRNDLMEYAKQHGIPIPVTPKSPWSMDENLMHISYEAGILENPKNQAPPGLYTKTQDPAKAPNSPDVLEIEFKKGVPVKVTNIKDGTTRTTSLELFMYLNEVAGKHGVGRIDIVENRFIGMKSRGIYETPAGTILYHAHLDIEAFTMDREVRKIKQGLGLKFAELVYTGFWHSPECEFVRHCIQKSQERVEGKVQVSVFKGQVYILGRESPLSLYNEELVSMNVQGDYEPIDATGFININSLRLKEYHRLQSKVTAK
Protocol: Activation of the AsS enzyme of Example 3 by peptide SEQ ID NO 8 was quantified in vitro according to Hao et al. [Hao G., Xie L., Gross S. S. Argininosuccinate synthetase is reversibly inactivated by S-nitrosylation in vitro and in vivo. J. Biol. Chem., 279:36192-36200 (2004)]. This method is based on measuring the quantity of phosphate generated from ATP, when pyrophosphatase is added to the reaction medium. Since the activity of the pyrophosphatase relates directly to the enzymatic activity of the AsS, the quantity of generated pyrophosphate is a direct measurement of the AsS activity.
The AsS enzyme (1 μg) was added to the reaction mixture containing 20 mM Tris-HCl, pH 7.8, 2 mM ATP, 2 mM citrulline, 2 mM aspartate, 6 mM MgCl2, 20 mM KCl, and 0.2 units of pyrophosphatase in a final volume of 200 μL in 96 well microplates. Increasing quantities of the SEQ ID NO 8 peptide (0.5, 1 to 8 μM) were added, and samples were incubated at 37° C. for 60 minutes. The reaction was interrupted by the addition of 200 μL of ammonium molybdate buffer (10 mM ascorbic acid, 2.5 mM ammonium molybdate, 2% sulphuric acid). Resulting phosphate was determined in the samples by spectrophotometry (absorbance at 650 nm), using a standard curve obtained with inorganic phosphate.
The production rate of phosphate (enzymatic activity of the AsS) was activated up to approximately 2.5 fold upon addition of 2 μM peptide SEQ ID NO 8. […] Accessibility of endothelial and inducible nitric oxide synthase to the intracellular citrulline-arginine regeneration pathway. Biochem. Pharmacol. 69: 97-104, 2005].

SEQ ID NO 8/^125I: synthetic oligopeptide SEQ ID NO 8 labeled with ^125I ([pGlu]NWPHPQIPP; also: 125I label, place not given here)
kidney concentration relative to other tissues per gram of tissue [1]: higher than 10 fold
share of the concentration of the injected dose remaining in the kidneys ([1]; kidney): approximately 15%
time the radioactivity remains in the kidneys ([1]; kidney): > 3 h

<EWGRPPGPPIPP [SEQ ID NO 14]
Metabolites in the urine [2]: <EWGRPPGPPIPP

CC[C@H](C)[C@H](NC(=O)[C@@H]1CCCN1C(=O)CNC(=O)[C@H](CC(=O)O)NC(=O)[C@@H]1CCC(=O)N1)C(=O)N1CCC[C@H]1C(=O)N1CCC[C@H]1C(=O)O [SEQ ID NO 4, <EDGPIPP] ([pGlu]DGPIPP-OH)
Metabolites in the urine [2]: <EDGPIPP

CC[C@H](C)[C@H](NC(=O)[C@H](CCC(N)=O)NC(=O)[C@@H]1CCCN1C(=O)[C@H](CCCNC(=N)N)NC(=O)[C@@H]1CCCN1C(=O)[C@H](Cc1c[nH]c2ccccc12)NC(=O)[C@@H]1CCC(=O)N1)C(=O)N1CCC[C@H]1C(=O)N1CCC[C@H]1C(=O)O [SEQ ID NO 5, <EWPRPQIPP]
Metabolites in the urine ([2]; 0.91 mg/kg): <EWPRPQIP; also recorded: <EWPRP; also recorded: <EWPRPQIPP

<EKWAP [SEQ ID NO 1]
time from the peak until the [Ca2+]i plateau [3]: 20 s
change of intracellular [Ca2+]i ([3]; 1 μM): Increase
[Ca2+]i response peak ([3]; immediately after addition of the peptide): approximately 350 nM
form in which the peptide is excreted in urine ([2]; mice injected intraperitoneally): exception
Metabolites in the urine [2]: <EKW

CC(N)(CC(=O)O)C(=O)O (racemic) [MDLA, α-methyl-DL-aspartic acid, reference compound]
effect of the inhibitor on AsS activation by peptide SEQ ID NO 8 [4]: completely blocked; also recorded: completely inhibited
